This is an account of results in patent publication US12590062B2, “PD-1/PD-L1 inhibitors” (Gilead Sciences, Inc., priority 2017, dated 2026).

For one assay, the target named is T1, PD-1/PD-L1 interaction (Homo sapiens, UniProt Q9NZQ7).
T1 construct: expressed in transfected cells; host or cells: CHO cells (aAPC-PD-L1) co-cultured with Jurkat cells overexpressing PD-1 and an NFAT-luciferase reporter
Description: PD-1/PD-L1 NFAT reporter co-culture assay. The assay is classed as cell-based. The following applies: Jurkat PD-1 NFAT-luciferase cells co-cultured with aAPC-PD-L1 CHO cells, 6 hrs at 37° C.; read-out: EC50 NFAT Luciferase. The procedure, abridged: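 Jurkat cells overexpressing PD-1 with NFAT-luciferase mixed with compounds and plated onto CHO aAPCs expressing anti-CD3 and PD-L1, RPMI with 2% FBS. Co-culture 6 h at 37 °C; luminescence read with ONE-Glo. EC50 from four-parameter fit.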

The target of another assay is PD-1/PD-L1 (Homo sapiens, UniProt Q9NZQ7). Description: PD-1/PD-L1 biochemical protein-protein interaction assay (ALPHA). It is filed as binding. The following applies: 0.3 nM His tagged PD-L1, 2.5 nM biotinylated Fc-PD-1, 60 minutes at 25° C., read-out: IC50 PD-L1-PD-1 Alpha IC50-mono PD-L1-fcP-D1. The procedure, abridged: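 ALPHA bead proximity assay of extracellular domains: 0.3 nM His-PD-L1 with 2.5 nM biotinylated Fc-PD-1 in 25 mM Hepes pH 7.4, 150 mM NaCl, 3.4 mM EDTA, 0.005% Tween 20, 0.01% BSA, 60 min at 25 °C. Anti-His acceptor and streptavidin donor beads added; IC50 from four-parameter fit of signal loss.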
PD-1/PD-L1, sequence (Q9NZQ7 19-238 limits assumed): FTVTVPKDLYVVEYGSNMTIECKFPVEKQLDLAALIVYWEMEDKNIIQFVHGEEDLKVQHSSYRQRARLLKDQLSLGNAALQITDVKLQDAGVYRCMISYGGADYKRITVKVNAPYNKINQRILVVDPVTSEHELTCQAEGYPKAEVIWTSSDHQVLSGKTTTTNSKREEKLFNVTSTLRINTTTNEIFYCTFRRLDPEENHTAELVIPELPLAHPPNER

T1 sequence (Q9NZQ7 19-290): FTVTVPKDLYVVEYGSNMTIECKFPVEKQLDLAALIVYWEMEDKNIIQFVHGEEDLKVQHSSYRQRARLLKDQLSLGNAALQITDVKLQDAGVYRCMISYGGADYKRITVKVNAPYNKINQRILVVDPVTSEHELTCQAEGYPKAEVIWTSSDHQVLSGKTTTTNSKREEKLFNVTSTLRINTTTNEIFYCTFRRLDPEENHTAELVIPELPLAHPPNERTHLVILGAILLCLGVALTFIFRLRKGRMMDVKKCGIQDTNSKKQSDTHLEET

Broadly, the EC50 is the concentration at which the effect is half-maximal. For orientation: IC50 means the concentration needed to halve the response being measured. As to `Cc1c(COc2cc(OCc3cncc(C#N)c3)c(CNC[C@@H](O)CC(=O)O)cc2Cl)cccc1-c1cccc(-c2ccc(N3CCNCC3)cc2)c1C` [Example 339, (S)-4-((5-chloro-2-((5-cyanopyridin-3-yl)methoxy)-4-((2,2′-dimethyl-4″-(piperazin-1-yl)-[1,1′:3′,1″-terphenyl]-3-yl)methoxy)benzyl)amino)-3-hydroxybutanoic acid], on PD-1/PD-L1 interaction, the half-maximal effective concentration (EC50) is 2220 nM. Besides, the 50% inhibitory concentration (IC50) at PD-1/PD-L1 is 1.3 nM.

Take `Cc1c(COc2nc(OCc3cncc(S(C)(=O)=O)c3)c(CN[C@](C)(CO)C(=O)O)cc2Br)cccc1-c1cccc(COc2nc(OCc3cncc(S(C)(=O)=O)c3)c(CN[C@](C)(CO)C(=O)O)cc2Br)c1C` [Example 40, (2R,2′R)-2,2′-((((((2,2′-dimethyl-[1,1′-biphenyl]-3,3′-diyl)bis(methylene))bis(oxy))bis(5-bromo-2-((5-(methylsulfonyl)pyridin-3-yl)methoxy)pyridine-6,3-diyl))bis(methylene))bis(azanediyl))bis(3-hydroxy-2-methylpropanoic acid)]: at PD-1/PD-L1 interaction, the EC50 stood at 176 nM. At PD-1/PD-L1, the IC50 is 0.1 nM.

As to `COc1cc(C(=O)N2CCc3c(-c4cccc5c4CCN5C(=O)c4ccc(CNC[C@@H](O)CC(=O)O)c(OC)c4)cccc32)ccc1CNC[C@@H](O)CC(=O)O` [Example 180, (3S,3′S)-4,4′-(((([4,4′-biindoline]-1,1′-dicarbonyl)bis(2-methoxy-4,1-phenylene))bis(methylene))bis(azanediyl))bis(3-hydroxybutanoic acid)], the EC50 at PD-1/PD-L1 interaction came to 24800 nM. In addition, the IC50 on PD-1/PD-L1 is 4.6 nM.

Take `COc1nc(OCc2cccc(-c3cccc(COc4ccc(CNCCO)c(OC)n4)c3C)c2C)ccc1CNCCO` [Example 21, 2,2′-((((((2,2′-dimethyl-[1,1′-biphenyl]-3,3′-diyl)bis(methylene))bis(oxy))bis(2-methoxypyridine-6,3-diyl))bis(methylene))bis(azanediyl))bis(ethan-1-ol)]: the half-maximal effective concentration (EC50) on PD-1/PD-L1 interaction was determined as 1370 nM. Further, at PD-1/PD-L1, the 50% inhibitory concentration (IC50) was found to be 17 nM.

As to `CC(CO)(NCc1cc(Cl)c(O[C@H]2CCc3c(-c4cccc5c4CC[C@@H]5Oc4nc(OCc5cncc(S(C)(=O)=O)c5)c(CNC(C)(CO)C(=O)O)cc4Cl)cccc32)nc1OCc1cncc(S(C)(=O)=O)c1)C(=O)O` (stereo partly shown) [Example 298], the EC50 at PD-1/PD-L1 interaction is 21 nM. On PD-1/PD-L1, the IC50 is 0.051 nM.

Regarding `Cc1c(COc2ccc(CNC[C@@H](O)CC(=O)O)cc2Cl)cccc1-c1cccc(COc2ccc(CNC[C@@H](O)CC(=O)O)cc2Cl)c1C` [Example 283, (3S,3′S)-4,4′-((((((2,2′-dimethyl-[1,1′-biphenyl]-3,3′-diyl)bis(methylene))bis(oxy))bis(3-chloro-4,1-phenylene))bis(methylene))bis(azanediyl))bis(3-hydroxybutanoic acid)], the EC50 at PD-1/PD-L1 interaction was found to be 20900 nM. In addition, the IC50 at PD-1/PD-L1 was 0.8 nM.

With `Cc1c(COc2ccc(CNC[C@@H](O)CC(=O)O)c(OCCN3CCOCC3)n2)cccc1-c1cccc(COc2ccc(CNC[C@@H](O)CC(=O)O)c(OCCN3CCOCC3)n2)c1C` [Example 158, (3S,3′S)-4,4′-((((((2,2′-dimethyl-[1,1′-biphenyl]-3,3′-diyl)bis(methylene))bis(oxy))bis(2-(2-morpholinoethoxy)pyridine-6,3-diyl))bis(methylene))bis(azanediyl))bis(3-hydroxybutanoic acid)], on PD-1/PD-L1 interaction, the EC50 worked out at 28100 nM. For the same compound, on PD-1/PD-L1, the IC50 amounted to 2 nM.

As to `COc1nc(/C=C/c2cccc(-c3cccc(/C=C/c4nc(OC)c(CNC[C@@H](O)CC(=O)O)cc4Cl)c3C)c2C)c(Cl)cc1CNC[C@@H](O)CC(=O)O` [Example 239, (3S,3′S)-4,4′-(((((1E,1′E)-(2,2′-dimethyl-[1,1′-biphenyl]-3,3′-diyl)bis(ethene-2,1-diyl))bis(5-chloro-2-methoxypyridine-6,3-diyl))bis(methylene))bis(azanediyl))bis(3-hydroxybutanoic acid)], the EC50 at PD-1/PD-L1 interaction came to 1120 nM. Moreover, at PD-1/PD-L1, the IC50 was 8.1 nM.

Regarding `Cc1c(COc2cc(OCc3nccs3)c(CNC[C@@H](O)CC(=O)O)cc2Cl)cccc1-c1cccc(COc2cc(OCc3nccs3)c(CNC[C@@H](O)CC(=O)O)cc2Cl)c1C` [Example 262, (3S,3′S)-4,4′-((((((2,2′-dimethyl-[1,1′-biphenyl]-3,3′-diyl)bis(methylene))bis(oxy))bis(5-chloro-2-(thiazol-2-ylmethoxy)-4,1-phenylene))bis(methylene))bis(azanediyl))bis(3-hydroxybutanoic acid)], the EC50 on PD-1/PD-L1 interaction was 8620 nM. Also, the concentration for half-maximal inhibition (IC50) on PD-1/PD-L1 was 1.5 nM.

For `Cc1c(COc2cc(O)c(CNC[C@@H](O)CC(=O)O)cc2Cl)cccc1-c1cccc(COc2cc(OCc3cncc(C#N)c3)c(CNC[C@@H](O)CC(=O)O)cc2Cl)c1C` [Example 67, (S)-4-((4-((3′-((4-((((S)-3-carboxy-2-hydroxypropyl)amino)methyl)-2-chloro-5-((5-cyanopyridin-3-yl)methoxy)phenoxy)methyl)-2,2′-dimethyl-[1,1′-biphenyl]-3-yl)methoxy)-5-chloro-2-hydroxybenzyl)amino)-3-hydroxybutanoic acid], on PD-1/PD-L1 interaction, the EC50 was 1320 nM. Further, on PD-1/PD-L1, the IC50 stood at 1 nM.

`Cc1c(COc2nc(OCc3ccc(N4CCOCC4)nc3)c(CNC[C@@H](O)CC(=O)O)cc2Br)cccc1-c1cccc(COc2nc(OCc3ccc(N4CCOCC4)nc3)c(CNC[C@@H](O)CC(=O)O)cc2Br)c1C` [Example 269, (3S,3′S)-4,4′-((((((2,2′-dimethyl-[1,1′-biphenyl]-3,3′-diyl)bis(methylene))bis(oxy))bis(5-bromo-2-((6-morpholinopyridin-3-yl)methoxy)pyridine-6,3-diyl))bis(methylene))bis(azanediyl))bis(3-hydroxybutanoic acid)]: at PD-1/PD-L1 interaction, the EC50 was not below 50000 nM. The concentration for half-maximal inhibition (IC50) on PD-1/PD-L1 turned out to be 12.3 nM.

As for `Cc1c(COc2cc(OCc3cncc(C#N)c3)c(CNCCO)cc2Cl)cccc1-c1cccc(COc2cc(OCc3ccc(F)c(C#N)c3)c(CNCCO)cc2Cl)c1C` [Example 200, 5-((4-Chloro-5-((3′-((2-chloro-5-((3-cyano-4-fluorobenzyl)oxy)-4-(((2-hydroxyethyl)amino)methyl)phenoxy)methyl)-2,2′-dimethyl-[1,1′-biphenyl]-3-yl)methoxy)-2-(((2-hydroxyethyl)amino)methyl)phenoxy)methyl)nicotinonitrile], the EC50 at PD-1/PD-L1 interaction was 893 nM. On PD-1/PD-L1, the IC50 stood at 138 nM.

For the compound `COc1nc(OCc2cccc(-c3cccc(COc4nc(OCc5cncc(C#N)c5)c(CNC[C@@H](O)CC(=O)O)cc4Br)c3C)c2C)c(Br)cc1CNC[C@@H](O)CC(=O)O` [Example 586], the 50% effective concentration (EC50) at PD-1/PD-L1 interaction was found to be 181 nM. The 50% inhibitory concentration (IC50) at PD-1/PD-L1 came out at 0.836 nM.

Consider `O=C(O)C[C@H](O)CNCc1ccc(C(=O)N2CCc3c(-c4cccc5c4CCN5C(=O)c4ccc(CNC[C@@H](O)CC(=O)O)cc4)cccc32)cc1` [Example 181, (3S,3′S)-4,4′-(((([4,4′-biindoline]-1,1′-dicarbonyl)bis(4,1-phenylene))bis(methylene))bis(azanediyl))bis(3-hydroxybutanoic acid)], for which the EC50 at PD-1/PD-L1 interaction is 30900 nM. In addition, at PD-1/PD-L1, the IC50 stood at 3.3 nM.
